Test results reported in US20070049564A1 (Wyeth, priority 2005, published 2007).
In brackets after ≈: the same amount, converted by molar mass. Like-named read-outs stand apart in the source and are kept apart here.

What was measured:
[1] = tested on: E. faecium GC 2243; assay: MIC, broth microdilution; conditions: Enterococcus faecium
[2] = tested on: S. aureus GC 4536; assay: MIC, broth microdilution; conditions: Staphylococcus aureus
[3] = tested on: S. aureus GC 6467; assay: MIC, broth microdilution; conditions: Staphylococcus aureus
[4] = tested on: E. faecium GC 4556; assay: MIC, broth microdilution; conditions: Enterococcus faecium
Experimental: (§1) Antimicrobial susceptibility testing. The in vitro activities of the antibiotics are determined by the broth microdilution method as recommended by the National Committee for Clinical Laboratory Standards (NCCLS) (1). Mueller-Hinton II broth (MHBII)(BBL Cockeysville, Md.) is the medium employed in the testing procedures. Microtiter plates containing serial dilutions of each antimicrobial agent are inoculated with each organism to yield the appropriate density (10^5 CFU/ml) in a 100 μl final volume. The plates are incubated for 18-22 hours at 35° C. in ambient air.
(§2) Representative compounds were first incubated in mouse serum for an hour prior to the in vitro testing against a panel of selected gram-positive and gram-negative bacteria strains. All compounds were also pre-incubated in water for an hour prior to testing as control. Representative compounds of Formula I were incubated in human serum prior to MIC determination.

[5] = tested on: E. coli GC 6465; assay: MIC, broth microdilution; conditions: Escherichia coli
[6] = tested on: S. typhimurium GC 2172; assay: MIC, broth microdilution; conditions: Salmonella enterica, TYPHIMURIUM
[7] = tested on: Staph.; assay: Range of MIC for Staph. strains, including MRSA; conditions: Staphylococcus aureus, MRSA
[8] = tested on: E. coli GC 2231; assay: MIC, broth microdilution; conditions: Escherichia coli
[9] = tested on: E. coli GC 2270; assay: MIC, broth microdilution; conditions: Escherichia coli
[10] = tested on: E. coli GC 2233; assay: MIC, broth microdilution; conditions: Escherichia coli
[11] = tested on: S. aureus GC 6469; assay: MIC, broth microdilution; conditions: Staphylococcus aureus
[12] = tested on: S. aureus GC 6466; assay: MIC, broth microdilution; conditions: Staphylococcus aureus
[13] = tested on: S. aureus GC 2216; assay: MIC, broth microdilution; conditions: Staphylococcus aureus
[14] = tested on: E. faecalis GC 2242; assay: MIC, broth microdilution; conditions: Enterococcus faecalis
[15] = tested on: S. aureus GC 1079; assay: MIC, broth microdilution; conditions: Staphylococcus aureus
[16] = tested on: E. coli GC 1073; assay: MIC, broth microdilution; conditions: Escherichia coli
[17] = tested on: E. coli GC 4560; assay: MIC, broth microdilution; conditions: Escherichia coli
Experimental: as §1, §2

[18] = tested on: E. coli GC 2235; assay: MIC, broth microdilution; conditions: Escherichia coli
[19] = tested on: E. coli; assay: Range of MIC for E. coli strains; conditions: Escherichia coli
[20] = tested on: c. albicans GC 3066; assay: MIC, broth microdilution

CCCN(CC(=O)Nc1cc(N(C)C)c2c(c1O)C(=O)C1=C(O)[C@]3(O)C(=O)C(C(N)=O)=C(O)[C@@H](N(C)C)[C@@H]3C[C@@H]1C2)C(=O)OCOC(=O)c1ccc(-c2ccccc2)cc1 [Example 24, ({[(2-{[(5aR,6aS,7S,10aS)-9-(aminocarbonyl)-4,7-bis(dimethylamino)-1,8,10a,11-tetrahydroxy-10,12-dioxo-5,5a,6,6a,7,10,10a,12-octahydrotetracen-2-yl]amino}-2-oxoethyl)(propyl)amino]carbonyl}oxy)methyl 1,1′-biphenyl-4-carboxylate]
MIC ([1]; GC2243, read-out: MINIMAL INHIBITORY CONCENTRATION MIC, pre-incubated in Mouse Serum): 0.5 µg/mL (≈ 0.605 µM) | MIC ([1]; GC2243, read-out: MINIMAL INHIBITORY CONCENTRATION MIC, pre-incubated in Water): 2 µg/mL (≈ 2.42 µM) | MIC ([2]; GC4536, read-out: MINIMAL INHIBITORY CONCENTRATION MIC, pre-incubated in Mouse Serum): 1 µg/mL (≈ 1.21 µM) | MIC ([2]; GC4536, read-out: MINIMAL INHIBITORY CONCENTRATION MIC, pre-incubated in Water): 4 µg/mL (≈ 4.84 µM) | MIC ([3]; GC6467, read-out: MINIMAL INHIBITORY CONCENTRATION MIC, pre-incubated in Mouse Serum): 4 µg/mL (≈ 4.84 µM) | MIC ([3]; GC6467, read-out: MINIMAL INHIBITORY CONCENTRATION MIC, pre-incubated in Water): > 64 µg/mL | MIC ([4]; GC4556, read-out: MINIMAL INHIBITORY CONCENTRATION MIC, pre-incubated in Mouse Serum): 1 µg/mL (≈ 1.21 µM) | MIC ([4]; GC4556, read-out: MINIMAL INHIBITORY CONCENTRATION MIC, pre-incubated in Water): 32 µg/mL (≈ 38.7 µM) | MIC ([5]; GC6465, read-out: MINIMAL INHIBITORY CONCENTRATION MIC, pre-incubated in Mouse Serum): 8 µg/mL (≈ 9.69 µM) | MIC ([5]; GC6465, read-out: MINIMAL INHIBITORY CONCENTRATION MIC, pre-incubated in Water): > 64 µg/mL | MIC ([6]; read-out: MINIMAL INHIBITORY CONCENTRATION MIC, pre-incubated in Mouse Serum): 8 µg/mL (≈ 9.69 µM) | MIC ([6]; read-out: MINIMAL INHIBITORY CONCENTRATION MIC, pre-incubated in Water): > 64 µg/mL | MIC ([7]; read-out: Range of MIC, Staph (Mouse Serum)): 0.25 to 4 µg/mL (≈ 0.303 to 4.84 µM) | MIC ([7]; read-out: Range of MIC, Staph. (mouse serum)): 0.25 to 4 µg/mL (≈ 0.303 to 4.84 µM) | MIC ([8]; GC2231, read-out: MINIMAL INHIBITORY CONCENTRATION MIC, pre-incubated in Mouse Serum): 2 µg/mL (≈ 2.42 µM) | MIC ([8]; GC2231, read-out: MINIMAL INHIBITORY CONCENTRATION MIC, pre-incubated in Water): > 64 µg/mL | MIC ([9]; GC2270, read-out: MINIMAL INHIBITORY CONCENTRATION MIC, pre-incubated in Mouse Serum): 0.5 µg/mL (≈ 0.605 µM) | MIC ([9]; GC2270, read-out: MINIMAL INHIBITORY CONCENTRATION MIC, pre-incubated in Water): > 64 µg/mL | MIC ([10]; GC2233, read-out: MINIMAL INHIBITORY CONCENTRATION MIC, pre-incubated in Mouse Serum): 1 µg/mL (≈ 1.21 µM) | MIC ([10]; GC2233, read-out: MINIMAL INHIBITORY CONCENTRATION MIC, pre-incubated in Water): > 64 µg/mL | MIC ([11]; GC6469, read-out: MINIMAL INHIBITORY CONCENTRATION MIC, pre-incubated in Mouse Serum): 4 µg/mL (≈ 4.84 µM) | MIC ([11]; GC6469, read-out: MINIMAL INHIBITORY CONCENTRATION MIC, pre-incubated in Water): > 64 µg/mL | MIC ([12]; GC6466, read-out: MINIMAL INHIBITORY CONCENTRATION MIC, pre-incubated in Mouse Serum): 0.25 µg/mL (≈ 0.303 µM) | MIC ([12]; GC6466, read-out: MINIMAL INHIBITORY CONCENTRATION MIC, pre-incubated in Water): 0.5 µg/mL (≈ 0.605 µM) | MIC ([13]; GC2216, read-out: MINIMAL INHIBITORY CONCENTRATION MIC, pre-incubated in Mouse Serum): 0.5 µg/mL (≈ 0.605 µM) | MIC ([13]; GC2216, read-out: MINIMAL INHIBITORY CONCENTRATION MIC, pre-incubated in Water): 4 µg/mL (≈ 4.84 µM) | MIC ([14]; GC2242, read-out: MINIMAL INHIBITORY CONCENTRATION MIC, pre-incubated in Mouse Serum): 2 µg/mL (≈ 2.42 µM) | MIC ([14]; GC2242, read-out: MINIMAL INHIBITORY CONCENTRATION MIC, pre-incubated in Water): 4 µg/mL (≈ 4.84 µM) | MIC ([15]; GC1079, read-out: MINIMAL INHIBITORY CONCENTRATION MIC, pre-incubated in Mouse Serum): 2 µg/mL (≈ 2.42 µM) | MIC ([15]; GC1079, read-out: MINIMAL INHIBITORY CONCENTRATION MIC, pre-incubated in Water): 64 µg/mL (≈ 77.5 µM) | MIC ([16]; GC1073, read-out: MINIMAL INHIBITORY CONCENTRATION MIC, pre-incubated in Mouse Serum): 1 µg/mL (≈ 1.21 µM) | MIC ([16]; GC1073, read-out: MINIMAL INHIBITORY CONCENTRATION MIC, pre-incubated in Water): > 64 µg/mL | MIC ([17]; GC4560, read-out: MINIMAL INHIBITORY CONCENTRATION MIC, pre-incubated in Mouse Serum): 0.25 µg/mL (≈ 0.303 µM) | MIC ([17]; GC4560, read-out: MINIMAL INHIBITORY CONCENTRATION MIC, pre-incubated in Water): 64 µg/mL (≈ 77.5 µM) | MIC ([18]; GC2235, read-out: MINIMAL INHIBITORY CONCENTRATION MIC, pre-incubated in Mouse Serum): 0.5 µg/mL (≈ 0.605 µM) | MIC ([18]; GC2235, read-out: MINIMAL INHIBITORY CONCENTRATION MIC, pre-incubated in Water): > 64 µg/mL | MIC ([19]; 20 h, read-out: Range of MIC, E. coli (Mouse Serum)): 0.5 to 2 µg/mL (≈ 0.605 to 2.42 µM) | MIC ([19]; read-out: Range of MIC, E. coli (Water)): > 64 µg/mL | MIC ([19]; read-out: Range of MIC, E. coli (mouse serum)): 0.5 to 2 µg/mL (≈ 0.605 to 2.42 µM) | MIC ([19]; read-out: Range of MIC, E. coli (water)): > 64 µg/mL | MIC ([20]; Candida albicans, GC3066, read-out: MINIMAL INHIBITORY CONCENTRATION MIC): > 64 µg/mL | MINIMAL INHIBITORY CONCENTRATION MIC ([20]; pre-incubated in Water): >64 UG/ML
